Measured values published in patent publication US10392630B2, “Plants having increased tolerance to herbicides” (BASF AGRO B.V., priority 2013, dated 2019).
Where “and” joins values, the source holds several entries; their conditions need not be identical. Equal values may be shown once.

Tests used:
[1] = molecular target: Amaranthus wildtype PPO (AMARE), PPO herbicide sensitive PPO2 (Amaranthus tuberculatus, UniProt Q0NZW9); assay: PPO enzyme assay, dose-response (fluorescence), wildtype Amaranthus PPO2; format: biochemical; conditions: IC50 (M), Table 3a
[2] = tested on: transgenic soybean cv Jake cuttings; assay: Herbicide injury of transgenic soybean cuttings from T0 plants (Table 7, FIG. 4); format: in vivo, Glyceine max; conditions: V2 spray, 1 week after treatment
[3] = tested on: transgenic Arabidopsis thaliana plants; assay: Growth inhibition of transgenic Arabidopsis in 48-well plates, tolerance factor (Table 5, FIG. 2); format: in vivo; conditions: growth inhibition seven to ten days after seeding
[4] = tested on: transgenic T0 corn events; assay: Herbicide injury of transgenic T0 corn events, greenhouse spray (Table 6a); format: in vivo, Zea mays; conditions: 7 days after treatment
[5] = tested on: Alopecurus wildtype PPO (ALOMY), PPO herbicide sensitive PPO2, SEQ ID NO 2; assay: PPO enzyme assay, dose-response (fluorescence), wildtype Alopecurus PPO2; format: biochemical, Alopecurus myosuroides

Amaranthus wildtype PPO (AMARE), PPO herbicide sensitive PPO2, sequence (Q0NZW9 entry or part of it): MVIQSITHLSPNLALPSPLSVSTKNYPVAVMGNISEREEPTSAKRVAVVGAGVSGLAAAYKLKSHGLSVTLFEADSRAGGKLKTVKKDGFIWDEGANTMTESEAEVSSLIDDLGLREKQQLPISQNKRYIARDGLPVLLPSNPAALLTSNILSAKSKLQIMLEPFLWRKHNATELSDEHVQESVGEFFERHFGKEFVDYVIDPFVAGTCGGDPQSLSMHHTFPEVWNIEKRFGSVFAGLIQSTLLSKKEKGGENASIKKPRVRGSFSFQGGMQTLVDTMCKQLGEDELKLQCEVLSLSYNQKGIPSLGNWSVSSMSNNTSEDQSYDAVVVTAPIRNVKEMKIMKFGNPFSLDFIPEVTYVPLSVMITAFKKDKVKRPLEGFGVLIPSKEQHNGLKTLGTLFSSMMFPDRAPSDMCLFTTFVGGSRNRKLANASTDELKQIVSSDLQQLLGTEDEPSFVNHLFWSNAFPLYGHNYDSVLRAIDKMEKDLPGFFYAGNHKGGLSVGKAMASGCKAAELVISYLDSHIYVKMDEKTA

SMILES: C#CCN1C(=O)C(F)(F)Oc2cc(F)c(-n3c(=O)n(C)c(=S)n(C)c3=O)cc21 [BAS 850H]
- IC50 ([1]; PPO herbicide sensitive PPO2 AC): 5.96e-11 M
- IC50 ([1]; PPO herbicide sensitive PPO2 WC): 5.17e-10 M
- Herbicide injury ([2]; AlomyPPO1_R138A T0 cuttings, BAS 850H 25 g ai/ha): 5 and 9
- Herbicide injury ([2]; AlomyPPO1_R138A T0 cuttings, BAS 850H 50 g ai/ha): 8 and 9
- Herbicide injury ([2]; AlomyPPO1_R138A_Y420M T0 cuttings, BAS 850H 25 g ai/ha): 7
- Herbicide injury ([2]; AlomyPPO1_R138A_Y420M T0 cuttings, BAS 850H 50 g ai/ha): 9
- Herbicide injury ([2]; AlomyPPO1_R138L T0 cuttings, BAS 850H 25 g ai/ha): 8 and 9 and 6
- Herbicide injury ([2]; AlomyPPO1_R138L T0 cuttings, BAS 850H 50 g ai/ha): 8 and 7 and 9
- Herbicide injury ([2]; AlomyPPO1_Y420M T0 cuttings, BAS 850H 25 g ai/ha): 6 and 5 and 9
- Herbicide injury ([2]; AlomyPPO1_Y420M T0 cuttings, BAS 850H 50 g ai/ha): 8 and 6 and 9
- Herbicide injury ([2]; AlomyPPO1_Y420V T0 cuttings, BAS 850H 50 g ai/ha): 9 and 7 and 8 and 5
- Herbicide injury ([2]; AlomyPPO2 T0 cuttings, BAS 850H 25 g ai/ha): 7 and 8 and 9
- Herbicide injury ([2]; AlomyPPO2 T0 cuttings, BAS 850H 50 g ai/ha): 9 and 8 and 7
- Herbicide injury ([2]; AlomyPPO2_R137A T0 cuttings, BAS 850H 25 g ai/ha): 7
- Herbicide injury ([2]; AlomyPPO2_R137A T0 cuttings, BAS 850H 50 g ai/ha): 7
- Herbicide injury ([2]; AlomyPPO2_R137A_F438I T0 cuttings, BAS 850H 25 g ai/ha): 4 and 5 and 7 and 8 and 6
- Herbicide injury ([2]; AlomyPPO2_R137A_F438I T0 cuttings, BAS 850H 50 g ai/ha): 5 and 6 and 7 and 8
- Herbicide injury ([2]; AlomyPPO2_R137A_F438I T0 cuttings, BAS 850H 75 g ai/ha): 5 and 8 and 7 and 9 and 6
- Herbicide injury ([2]; AlomyPPO2_R137A_F438L T0 cuttings, BAS 850H 25 g ai/ha): 6 and 9 and 8
- Herbicide injury ([2]; AlomyPPO2_R137A_F438L T0 cuttings, BAS 850H 50 g ai/ha): 7 and 9 and 5
- Herbicide injury ([2]; AlomyPPO2_R137A_F438L T0 cuttings, BAS 850H 75 g ai/ha): 7 and 9 and 5
- Herbicide injury ([2]; AlomyPPO2_R137A_F438V T0 cuttings, BAS 850H 50 g ai/ha): 4 and 5 and 6
- Herbicide injury ([2]; AlomyPPO2_R137A_F438V T0 cuttings, BAS 850H 75 g ai/ha): 5 and 7 and 6
- Herbicide injury ([2]; AlomyPPO2_R137I T0 cuttings, BAS 850H 50 g ai/ha): 6 and 5 and 7 and 9
- Herbicide injury ([2]; AlomyPPO2_R137L_F438I T0 cuttings, BAS 850H 25 g ai/ha): 8 and 9
- Herbicide injury ([2]; AlomyPPO2_R137L_F438I T0 cuttings, BAS 850H 50 g ai/ha): 9 and 8
- Herbicide injury ([2]; AlomyPPO2_R137L_F438I T0 cuttings, BAS 850H 75 g ai/ha): 9 and 8
- Herbicide injury ([2]; AlomyPPO2_R137M_F438L T0 cuttings, BAS 850H 50 g ai/ha): 7 and 4 and 5
- Herbicide injury ([2]; AlomyPPO2_R137M_F438L T0 cuttings, BAS 850H 75 g ai/ha): 7 and 6 and 5
- Herbicide injury ([2]; Wild type cuttings, BAS 850H 25 g ai/ha): 8
- Herbicide injury ([2]; Wild type cuttings, BAS 850H 50 g ai/ha): 9
- Herbicide injury ([2]; Wild type cuttings, BAS 850H 75 g ai/ha): 9
- TF (Tolerance Factor), relative tolerance rate (non-transgenic = 1.0) ([3]; transgenic Arabidopsis Am_PPO2_F438I): >50
- TF (Tolerance Factor), relative tolerance rate (non-transgenic = 1.0) ([3]; transgenic Arabidopsis Am_PPO2_R137A): >50
- TF (Tolerance Factor), relative tolerance rate (non-transgenic = 1.0) ([3]; transgenic Arabidopsis Am_PPO2_R137A_F438I): >50
- TF (Tolerance Factor), relative tolerance rate (non-transgenic = 1.0) ([3]; transgenic Arabidopsis Am_PPO2_R137A_F438L): >50
- TF (Tolerance Factor), relative tolerance rate (non-transgenic = 1.0) ([3]; transgenic Arabidopsis Am_PPO2_R137A_F438M): >50
- TF (Tolerance Factor), relative tolerance rate (non-transgenic = 1.0) ([3]; transgenic Arabidopsis Am_PPO2_R137A_F438V): >50
- TF (Tolerance Factor), relative tolerance rate (non-transgenic = 1.0) ([3]; transgenic Arabidopsis Am_PPO2_R137I): >50
- TF (Tolerance Factor), relative tolerance rate (non-transgenic = 1.0) ([3]; transgenic Arabidopsis Am_PPO2_R137L_F438I): >50
- TF (Tolerance Factor), relative tolerance rate (non-transgenic = 1.0) ([3]; transgenic Arabidopsis Am_PPO2_R137L_F438L): >50
- TF (Tolerance Factor), relative tolerance rate (non-transgenic = 1.0) ([3]; transgenic Arabidopsis Am_PPO2_R137L_F438M): >50
- TF (Tolerance Factor), relative tolerance rate (non-transgenic = 1.0) ([3]; transgenic Arabidopsis Am_PPO2_R137M_F438I): >50
- TF (Tolerance Factor), relative tolerance rate (non-transgenic = 1.0) ([3]; transgenic Arabidopsis Am_PPO2_R137M_F438L): >50
- TF (Tolerance Factor), relative tolerance rate (non-transgenic = 1.0) ([3]; transgenic Arabidopsis Am_PPO2_R137M_F438M): >50
- TF (Tolerance Factor), relative tolerance rate (non-transgenic = 1.0) ([3]; transgenic Arabidopsis Am_PPO2_R137M_F438V): >50
- Herbicide injury, 0 to 9 rating scale ([4]; T0 corn events AlomyPPO1_R138A, 50 g ai/ha + 1% (v/v) MSO at V2 stage): 6
- Herbicide injury, 0 to 9 rating scale ([4]; T0 corn events AlomyPPO1_R138A_Y420M, 50 g ai/ha + 1% (v/v) MSO at V2 stage): 5 and 6
- Herbicide injury, 0 to 9 rating scale ([4]; T0 corn events AlomyPPO1_R138A_Y420V, 50 g ai/ha + 1% (v/v) MSO at V2 stage): 6 and 5
- Herbicide injury, 0 to 9 rating scale ([4]; T0 corn events AlomyPPO1_R138A_Y420V, 100 g ai/ha + 1% (v/v) MSO at V2 stage): 5
- Herbicide injury, 0 to 9 rating scale ([4]; T0 corn events AlomyPPO1_Y420M, 50 g ai/ha + 1% (v/v) MSO at V2 stage): 5 and 6
- Herbicide injury, 0 to 9 rating scale ([4]; T0 corn events AlomyPPO1_Y420M, 100 g ai/ha + 1% (v/v) MSO at V2 stage): 6
- Herbicide injury, 0 to 9 rating scale ([4]; T0 corn events AlomyPPO1_Y420V, 50 g ai/ha + 1% (v/v) MSO at V2 stage): 5 and 4 and 6
- Herbicide injury, 0 to 9 rating scale ([4]; T0 corn events AlomyPPO1_Y420V, 100 g ai/ha + 1% (v/v) MSO at V2 stage): 6
- Herbicide injury, 0 to 9 rating scale ([4]; T0 corn events AlomyPPO2, 50 g ai/ha + 1% (v/v) MSO at V2 stage): 6
- Herbicide injury, 0 to 9 rating scale ([4]; T0 corn events AlomyPPO2, 75 g ai/ha + 1% (v/v) MSO at V2 stage): 6
- Herbicide injury, 0 to 9 rating scale ([4]; T0 corn events AlomyPPO2_R137A, 50 g ai/ha + 1% (v/v) MSO at V2 stage): 5 and 4 and 6
- Herbicide injury, 0 to 9 rating scale ([4]; T0 corn events AlomyPPO2_R137A, 75 g ai/ha + 1% (v/v) MSO at V2 stage): 5
- Herbicide injury, 0 to 9 rating scale ([4]; T0 corn events AlomyPPO2_R137A_F438I, 50 g ai/ha + 1% (v/v) MSO at V2 stage): 4
- Herbicide injury, 0 to 9 rating scale ([4]; T0 corn events AlomyPPO2_R137A_F438I, 100 g ai/ha + 1% (v/v) MSO at V2 stage): 4 and 5
- Herbicide injury, 0 to 9 rating scale ([4]; T0 corn events AlomyPPO2_R137A_F438M, 100 g ai/ha + 1% (v/v) MSO at V2 stage): 5
- Herbicide injury, 0 to 9 rating scale ([4]; T0 corn events AlomyPPO2_R137A_F438V, 100 g ai/ha + 1% (v/v) MSO at V2 stage): 6
- Herbicide injury, 0 to 9 rating scale ([4]; T0 corn events AlomyPPO2_R137I, 100 g ai/ha + 1% (v/v) MSO at V2 stage): 4
- Herbicide injury, 0 to 9 rating scale ([4]; T0 corn events AlomyPPO2_R137M_F438I, 75 g ai/ha + 1% (v/v) MSO at V2 stage): 3 and 4
- Herbicide injury, 0 to 9 rating scale ([4]; T0 corn events tp-SorbiPPO2::AlomyPPO2, 50 g ai/ha + 1% (v/v) MSO at V2 stage): 5 and 6
- Herbicide injury, 0 to 9 rating scale ([4]; T0 corn events tp-SorbiPPO2::AlomyPPO2, 100 g ai/ha + 1% (v/v) MSO at V2 stage): 5
- Herbicide injury, 0 to 9 rating scale ([4]; T0 corn events tp-SorbiPPO2::AlomyPPO2_F431V, 50 g ai/ha + 1% (v/v) MSO at V2 stage): 4 and 5
- Herbicide injury, 0 to 9 rating scale ([4]; T0 corn events tp-SorbiPPO2::AlomyPPO2_F431V, 100 g ai/ha + 1% (v/v) MSO at V2 stage): 5 and 6
- Herbicide injury, 0 to 9 rating scale ([4]; T0 corn events tp-SorbiPPO2::AlomyPPO2_R130A, 50 g ai/ha + 1% (v/v) MSO at V2 stage): 4 and 5
- Herbicide injury, 0 to 9 rating scale ([4]; T0 corn events tp-SorbiPPO2::AlomyPPO2_R130A_F431V, 100 g ai/ha + 1% (v/v) MSO at V2 stage): 7 and 6
- Herbicide injury, 0 to 9 rating scale ([4]; T0 corn events tp-SorbiPPO2::c-AlomyPPO2_R130A_F431M, 50 g ai/ha + 1% (v/v) MSO at V2 stage): 4 and 5
- Herbicide injury, 0 to 9 rating scale ([4]; T0 corn events tp-SorbiPPO2::c-AlomyPPO2_R130L_F431V, 50 g ai/ha + 1% (v/v) MSO at V2 stage): 4 and 3 and 5
- Herbicide injury, 0 to 9 rating scale ([4]; T0 corn events tp-ZeamaPPO2::AlomyPPO2, 50 g ai/ha + 1% (v/v) MSO at V2 stage): 5 and 6
- Herbicide injury, 0 to 9 rating scale ([4]; T0 corn events tp-ZeamaPPO2::AlomyPPO2_F431V, 50 g ai/ha + 1% (v/v) MSO at V2 stage): 3 and 4 and 5
- Herbicide injury, 0 to 9 rating scale ([4]; T0 corn events tp-ZeamaPPO2::AlomyPPO2_F431V, 100 g ai/ha + 1% (v/v) MSO at V2 stage): 4
- Herbicide injury, 0 to 9 rating scale ([4]; T0 corn events tp-ZeamaPPO2::AlomyPPO2_R130A, 50 g ai/ha + 1% (v/v) MSO at V2 stage): 7 and 4 and 5 and 6
- Herbicide injury, 0 to 9 rating scale ([4]; T0 corn events tp-ZeamaPPO2::AlomyPPO2_R130A, 100 g ai/ha + 1% (v/v) MSO at V2 stage): 5
- Herbicide injury, 0 to 9 rating scale ([4]; T0 corn events tp-ZeamaPPO2::AlomyPPO2_R130A_F431V, 50 g ai/ha + 1% (v/v) MSO at V2 stage): 4 and 5
- Herbicide injury, 0 to 9 rating scale ([4]; T0 corn events tp-ZeamaPPO2::c-AlomyPPO2_R130L_F431V, 50 g ai/ha + 1% (v/v) MSO at V2 stage): 3 and 4 and 5 and 6
- Herbicide injury, 0 to 9 rating scale ([4]; T0 corn events tp-ZeamaPPO2::c-AlomyPPO2_R130M_F431V, 50 g ai/ha + 1% (v/v) MSO at V2 stage): 3 and 4 and 2
- Herbicide injury, 0 to 9 rating scale ([4]; untransformed wild type corn, 50 g ai/ha + 1% (v/v) MSO at V2 stage): 6
- Herbicide injury, 0 to 9 rating scale ([4]; untransformed wild type corn, 75 g ai/ha + 1% (v/v) MSO at V2 stage): 6
- Herbicide injury, 0 to 9 rating scale ([4]; untransformed wild type corn, 100 g ai/ha + 1% (v/v) MSO at V2 stage): 6
- IC50 ([5]; Table 3a, PPO herbicide sensitive PPO2, SEQ ID NO 2, ALOMY): 0.0364 nM
- IC50 ([5]; Table 3b, SEQ ID NO 2, WT): 0.0364 nM
